Measurements reported in patent US20070066646A1, “Compounds for Inhibiting Copper-Containing Amine Oxidases and Uses Thereof” (GENMEDICA THERAPEUTICS SL, priority 2005, published 2007).

Biological target: T1, Human SSAO (Homo sapiens, UniProt Q16853)
T1 construct: Human or mice adipose tissue homogenates, used as a source of SSAO activity; from tissue; host or cells: human adipose tissue homogenate
T1 sequence (Q16853 1-763): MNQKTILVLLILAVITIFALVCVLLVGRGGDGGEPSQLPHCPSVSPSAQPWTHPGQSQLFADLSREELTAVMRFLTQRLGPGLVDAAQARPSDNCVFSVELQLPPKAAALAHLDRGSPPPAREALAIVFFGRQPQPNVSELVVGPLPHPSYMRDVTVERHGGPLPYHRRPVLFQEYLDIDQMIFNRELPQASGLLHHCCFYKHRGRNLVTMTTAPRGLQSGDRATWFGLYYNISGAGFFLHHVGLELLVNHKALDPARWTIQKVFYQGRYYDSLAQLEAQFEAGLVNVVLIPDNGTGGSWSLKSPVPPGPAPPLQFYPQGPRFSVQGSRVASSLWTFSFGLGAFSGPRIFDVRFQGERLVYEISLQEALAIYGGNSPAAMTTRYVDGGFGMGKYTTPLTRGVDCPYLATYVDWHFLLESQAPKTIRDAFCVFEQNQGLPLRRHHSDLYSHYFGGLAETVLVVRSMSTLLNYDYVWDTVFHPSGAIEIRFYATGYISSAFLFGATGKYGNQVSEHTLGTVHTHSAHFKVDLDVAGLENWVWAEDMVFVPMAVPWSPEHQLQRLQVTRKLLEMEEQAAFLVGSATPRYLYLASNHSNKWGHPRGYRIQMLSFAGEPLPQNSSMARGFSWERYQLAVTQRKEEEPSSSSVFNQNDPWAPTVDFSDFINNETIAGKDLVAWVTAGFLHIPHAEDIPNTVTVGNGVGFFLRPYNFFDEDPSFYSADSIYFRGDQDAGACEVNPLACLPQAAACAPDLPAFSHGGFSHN
Test: SSAO activity determination (H2O2 detection with horseradish peroxidase/Amplex Red, benzylamine as substrate)
Format: biochemical
Settings: human adipose tissue homogenates as SSAO source, 20 min preincubation at 37° C., semicarbazide control subtracted
Procedure: SSAO Activity Determination:
All assays were performed at 37° C. with SSAO from human or mice adipose tissue. The enzyme activity was measured through detection of hydrogen peroxide formed by the oxidation of benzylamine. This method is based on the horseradish peroxidase catalyzed hydrogen peroxide oxidation of 10-acetyl-3,7-dihydroxyphenoxazine (Molecular Probes A-6550), that produces resorufin a highly fluorescent product (excitation, 545 nm; emission, 590 nm) (Zhou and Panchuk-Voloshina, 1997). Human or mice adipose tissue homogenates, used as a source of SSAO activity, were preincubated in 96 well microplates for 20 min at 37° C. in 180 μL of 200 mM Phosphate buffer and H2O2-detecting mixture containing horseradish peroxidase (final concentration 1 U/mL) and Amplex Red reagent (60 μM) and different concentrations of inhibitors when necessary. Catalytic reaction was initiated by addition of 20 μL of benzylamine as substrate at 10 mM for human homogenates giving final concentrations of 100 μM and 1 mM respectively. Fluorescence intensity of the samples was measured continuously during 1 h (excitation, 545 nm; emission, 590 nm) and H2O2 concentration was calculated from calibration curves generated by serial dilutions of standard H2O2. To evaluate the amount of H2O2 formed specifically via SSAO-mediated reaction, semicarbazide 100 μM was included in the control wells subjected to the same treatments and these values were subtracted from the total amount of H2O2 formed.
The inhibition was measured as % decrease of the signal compared to a control without inhibitor. Blank values in absence of substrates were subtracted from the fluorescence for each experimental condition. The IC50 shown in Table 1 were calculated with GraphPad Prism 4 program.

Going from `CCCc1ccc(S(=O)(=O)NC(CO)C(=O)NO)cc1` (stereo not shown) [compound 8] to `CCCc1ccc(S(=O)(=O)NC(C(=O)NO)C(C)O)cc1` (stereo not shown) [compound 9], the IC50 rises from 0.066 ± 0.001 µM to 0.136 ± 0.04 µM (2.1-fold).

Compared with `O=C(CNC(=O)c1ccc(Br)cc1)NO` [compound 3], `O=C(CCc1ccccc1O)NCc1ccc(C(=O)NO)cc1` [compound 25] is 9.4-fold higher in IC50: 0.1 ± 0.03 µM for the first, 0.941 ± 0.026 µM for the second.

First: NC(=O)C1CCCN1C(=O)c1ccc2ncccc2c1 (stereo not shown) [compound 35]
Second: NC(=O)C1CCCN1C(=O)c1nccc2ccccc12 (stereo not shown) [compound 36]
The IC50 of the first is 2.1-fold higher: 0.16 ± 0.031 µM for the first, 0.078 ± 0.024 µM for the second. The second is the more potent here.

`Cc1ccc(CCCC(=O)NC(CCC(=O)O)C(=O)O)cc1` (stereo not shown) [compound 29] and `O=C(O)CCC(NC(=O)CCCc1ccccc1)C(=O)O` (stereo not shown) [compound 28] are within error of each other in IC50: 0.259 ± 0.062 µM for the first, 0.229 ± 0.092 µM for the second.

Compared with `CCC(C)(C)c1ccc(S(=O)(=O)NC(CO)C(=O)NO)cc1` (stereo not shown) [compound 10], `CCC(C)(C)c1ccc(S(=O)(=O)NC(C(=O)NO)C(C)O)cc1` (stereo not shown) [compound 11] is 10-fold lower in IC50: 0.041 ± 0.008 µM for the first, 0.004 ± 0.0005 µM for the second.

`CC(O)C(NS(=O)(=O)c1ccc(-c2ccccc2)cc1)C(=O)NO` (stereo not shown) [compound 6] and `O=C(NO)C(CO)NS(=O)(=O)c1ccc(-c2ccccc2)cc1` (stereo not shown) [compound 5] are within error of each other in IC50: 0.3 ± 0.1 µM for the first, 0.25 ± 0.02 µM for the second.

First: Nc1ccc(C(=O)NCCCc2ccccc2)cc1O [compound 45]
Second: Nc1ccc(C(=O)NCCCCc2ccccc2)cc1O [compound 46]
The IC50 of the first is 2.7-fold lower: 0.146 ± 0.005 µM for the first, 0.401 ± 0.03 µM for the second.

`Nc1ccc(O)c(C(=O)NCCc2ccccc2)c1` [compound 53] and `Nc1ccc(O)c(C(=O)NCCCc2ccccc2)c1` [compound 54] are within error of each other in IC50: 0.618 ± 0.118 µM for the first, 0.575 ± 0.023 µM for the second.

First: Nc1ccc(O)c(C(=O)NCc2ccc3ccccc3c2)c1 [compound 51]
Second: Nc1ccc(C(=O)NCc2ccc3ccccc3c2)cc1O [compound 41]
The IC50 of the first is 1.9-fold higher: 0.477 ± 0.064 µM for the first, 0.25 ± 0.056 µM for the second.

Going from `Cc1ccc(/C=C/C(=O)NC(CCC(=O)O)C(=O)O)cc1` (stereo not shown) [compound 31] to `Cc1ccc(C2(C(=O)NC(CCC(=O)NO)C(=O)O)CCCC2)cc1` (stereo not shown) [compound 27], the IC50 rises from 0.128 ± 0.03 µM to 0.214 ± 0.041 µM (1.7-fold). The first is the more potent here.

Compared with `Cc1ccc(S(=O)(=O)NC(C(=O)NO)C(C)O)cc1` (stereo not shown) [compound 18], `Cc1ccc(S(=O)(=O)NC(CN)C(=O)NO)cc1` (stereo not shown) [compound 19] is 3.4-fold higher in IC50: 0.041 ± 0.001 µM for the first, 0.14 ± 0.03 µM for the second.

`O=C(CCC(=O)Nc1ccccc1O)NO` [compound 38] and `CC(CCc1ccccc1)NC(=O)CCC(=O)NO` (stereo not shown) [compound 37] are within 1.5-fold of each other in IC50: 0.14 ± 0.01 µM for the first, 0.18 ± 0.01 µM for the second.

First: CC(O)C(NS(=O)(=O)c1ccc2cccc(N(C)C)c2c1)C(=O)NO (stereo not shown) [compound 22]
Second: CN(C)c1cccc2ccc(S(=O)(=O)NC(CO)C(=O)NO)cc12 (stereo not shown) [compound 21]
The IC50 of the first is 3.8-fold higher: 0.369 ± 0.071 µM for the first, 0.097 ± 0.021 µM for the second. The second is the more potent here.

`Nc1ccc(C(=O)NCCOc2ccccc2)cc1O` [compound 42] and `Nc1ccc(O)c(C(=O)NCCOc2ccccc2)c1` [compound 52] are within error of each other in IC50: 0.173 ± 0.009 µM for the first, 0.189 ± 0.016 µM for the second.

`CC(C)(C)c1ccc(C(=O)N2CCCC2C(N)=O)cc1` (stereo not shown) [compound 33] and `NC(=O)C1CCCN1C(=O)c1ccc(-c2ccccc2)cc1` (stereo not shown) [compound 32] are within error of each other in IC50: 0.09 ± 0.002 µM for the first, 0.121 ± 0.047 µM for the second.

`Nc1ccc(O)c(C(=O)NCc2ccc(F)cc2)c1` [compound 49] and `Nc1ccc(C(=O)NCc2ccc(F)cc2)cc1O` [compound 40] are within 1.5-fold of each other in IC50: 0.253 ± 0.002 µM for the first, 0.202 ± 0.026 µM for the second.

`COc1cc(CNC(=O)c2cc(N)ccc2O)cc(OC)c1` [compound 50] and `Nc1ccc(O)c(C(=O)NCc2ccccc2)c1` [compound 47] are within 1.5-fold of each other in IC50: 0.577 ± 0.027 µM for the first, 0.41 ± 0.063 µM for the second.

Compared with `CC(O)C(NS(=O)(=O)c1ccc2cccnc2c1)C(=O)NO` (stereo not shown) [compound 20], `CC(O)C(NS(=O)(=O)c1ccc2ccccc2c1)C(=O)NO` (stereo not shown) [compound 14] is 15-fold lower in IC50: 0.789 ± 0.061 µM for the first, 0.054 ± 0.007 µM for the second. The second is the more potent here.

Compared with `Nc1ccc(C(=O)NCCc2ccccc2)cc1O` [compound 44], `Nc1ccc(O)c(C(=O)NCCCCc2ccccc2)c1` [compound 55] is 4.1-fold higher in IC50: 0.185 ± 0.031 µM for the first, 0.762 ± 0.06 µM for the second. The first is the more potent here.

Compared with `Cc1ccc(S(=O)(=O)NCc2ccc(C(=O)NO)cc2)cc1` [compound 23], `Cc1ccc(C2(C(=O)NCc3ccc(C(=O)NO)cc3)CCCC2)cc1` [compound 24] is 2.1-fold lower in IC50: 0.7 ± 0.04 µM for the first, 0.334 ± 0.08 µM for the second. The second is the more potent here.

Going from `NC(=O)C1CCCN1C(=O)c1cc2ccccc2cc1O` (stereo not shown) [compound 34] to `CC(NC(=O)c1ccc(N)c(O)c1)c1ccc2ccccc2c1` (stereo not shown) [compound 43], the IC50 rises from 0.147 ± 0.044 µM to 0.337 ± 0.07 µM (2.3-fold).

Compared with `CC(NC(=O)CCC(=O)NO)c1ccc2ccccc2c1` (stereo not shown) [compound 39], `O=C(CNS(=O)(=O)c1ccc2ccccc2c1)NO` [compound 17] is 1.8-fold lower in IC50: 0.39 ± 0.04 µM for the first, 0.217 ± 0.039 µM for the second.

`Nc1ccc(O)c(C(=O)NCc2ccccc2O)c1` [compound 48] and `O=C(NO)C(CO)NS(=O)(=O)c1ccc2ccccc2c1` (stereo not shown) [compound 13] are within 1.5-fold of each other in IC50: 0.074 µM for the first, 0.067 ± 0.001 µM for the second.

`O=C(O)CCC(NC(=O)c1cc2ccccc2[nH]1)C(=O)O` (stereo not shown) [compound 30] and `O=C(O)CCC(NC(=O)Cc1ccc(-c2ccccc2)cc1)C(=O)O` (stereo not shown) [compound 26] are within 1.5-fold of each other in IC50: 0.165 ± 0.007 µM for the first, 0.125 ± 0.002 µM for the second.

First: NCC(NS(=O)(=O)c1ccc(-c2ccccc2)cc1)C(=O)NO (stereo not shown) [compound 7]
Second: O=C(CNS(=O)(=O)c1ccc2ccccc2c1)NO [compound 15]
The IC50 of the first is 8.8-fold higher: 1.9 ± 0.2 µM for the first, 0.217 ± 0.039 µM for the second.

`O=C(NO)C1Cc2ccccc2C1` [compound 2] and `CCC(C)(C)c1ccc(S(=O)(=O)NCC(=O)NO)cc1` [compound 12] are within 1.5-fold of each other in IC50: 1.1 ± 0.04 µM for the first, 1.57 ± 0.175 µM for the second.
